# System: Fisher 344 rats fed a choline-deficiented, L-amino acid-defined (CDAA) diet (animal model for fatty liver)
# Assay: CDAA diet rat model for fatty liver: liver staining for lipid droplets and serum triglyceride
# Assay type: in vivo
# Procedure: Fisher 344 rats were fed only a general diet or a choline-deficiented, L-amino acid-defined (CDAA) diet to prepare a control group and a CDAA group as an animal model for fatty liver, respectively. Three medicament-treated groups were prepared by administering the following three medicaments to the CDAA groups every day. (Aspirin and ticlopidine are medicaments having the same platelet aggregation inhibitory action as cilostazol.)
# In addition, the amount of triglyceride in the liver as well as the serum level of triglyceride in those rats were measured.
compound,measurement,setting,value
"O=C1CCc2cc(OCCCCc3nnnn3C3CCCCC3)ccc2N1 [cilostazol, 6-[4-(1-cyclohexyl-1H-tetrazol-5-yl)butoxy]-3,4-dihydrocarbostyril]",lipid droplet of liver (Hematoxylin-eosin staining and Masson staining),"CDAA diet + 6 mg/kg every day for 6 weeks, compared with CDAA group without cilostazol and with aspirin (5 mg/kg) / ticlopidine (10 mg/kg) groups, FIG. 1-9",markedly less
same,serum level of triglyceride,"CDAA diet + 6 mg/kg every day, 6 weeks after start of administration, compared with control group and other medicaments-treated groups, FIG. 10",significantly lower

# — US8642618B2, “Carbostyril derivatives including cilostazol for treating fatty liver” (Otsuka Pharmaceutical Co., Ltd., priority 2007, dated 2014)
